Results taken from PubChem BioAssay AID248 (DTP/NCI, 2004).
Several values for one entry are separate records, joined by “and”; a condition that tells them apart may be missing. Identical values can stand only once. Toxic doses and inconclusive results are not listed. No stated cut-off is given here; in the data, active means T/C of 150% or more; inactive means T/C below 125%.

Tested on: L1210 leukemia ip in BDF1 mice, survival T/C
Assay: NCI In Vivo Anticancer Drug Screen. Data for tumor model L1210 Leukemia (intraperitoneal) in B6D2F1 (BDF1) mice
Conditions: endpoint: mean survival time, higher = longer survival
How it was run: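 Tumor cells were implanted, animals were treated, and survival was followed. The result divides the treated measurement by the vehicle-control measurement.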

[1] = dose: 100.0 mg/kg/injection, schedule: Q01DX001 (ip), vehicle: carboxymethylcellulose (CMC)
[2] = dose: 100.0 mg/kg/injection, schedule: Q01DX009 (ip), vehicle: carboxymethylcellulose (CMC)
[3] = dose: 100.0 mg/kg/injection, schedule: Q04DX003 (ip), vehicle: carboxymethylcellulose (CMC)
[4] = dose: 200.0 mg/kg/injection, schedule: Q01DX001 (ip), vehicle: carboxymethylcellulose (CMC)
[5] = dose: 200.0 mg/kg/injection, schedule: Q01DX009 (ip), vehicle: carboxymethylcellulose (CMC)
[6] = dose: 200.0 mg/kg/injection, schedule: Q04DX003 (ip), vehicle: carboxymethylcellulose (CMC)
[7] = dose: 400.0 mg/kg/injection, schedule: Q04DX003 (ip), vehicle: carboxymethylcellulose (CMC)
[8] = dose: 100.0 mg/kg/injection, schedule: Q01DX009 (ip), vehicle: Klucel (hydroxypropylcellulose) (HPC)
[9] = dose: 200.0 mg/kg/injection, schedule: Q01DX009 (ip), vehicle: Klucel (hydroxypropylcellulose) (HPC)
[10] = dose: 100.0 mg/kg/injection, schedule: Q01DX001 (ip), vehicle: saline
[11] = dose: 200.0 mg/kg/injection, schedule: Q01DX001 (ip), vehicle: saline
[12] = dose: 400.0 mg/kg/injection, schedule: Q01DX001 (ip), vehicle: saline

Measured: T/C

O=CN(O)CC(=O)O
inactive: dose: 62.5 mg/kg/injection, schedule: Q01DX010 (ip), vehicle: saline 95 % of control and 98 % of control | dose: 62.5 mg/kg/injection, schedule: Q01DX Z (ip), vehicle: saline 93 % of control | dose: 125.0 mg/kg/injection, schedule: Q01DX010 (ip), vehicle: saline 95 % of control | dose: 125.0 mg/kg/injection, schedule: Q01DX Z (ip), vehicle: saline 98 % of control | dose: 250.0 mg/kg/injection, schedule: Q01DX010 (ip), vehicle: saline 98 % of control and 106 % of control | dose: 250.0 mg/kg/injection, schedule: Q01DX Z (ip), vehicle: saline 92 % of control | dose: 500.0 mg/kg/injection, schedule: Q01DX010 (ip), vehicle: saline 96 % of control and 101 % of control | dose: 500.0 mg/kg/injection, schedule: Q01DX Z (ip), vehicle: saline 88 % of control | dose: 575.0 mg/kg/injection, schedule: Q02DX010 (ip), vehicle: other 101 % of control | dose: 860.0 mg/kg/injection, schedule: Q02DX010 (ip), vehicle: other 107 % of control | dose: 1300.0 mg/kg/injection, schedule: Q02DX010 (ip), vehicle: other 105 % of control | dose: 2000.0 mg/kg/injection, schedule: Q02DX010 (ip), vehicle: other 106 % of control | dose: 3000.0 mg/kg/injection, schedule: Q02DX010 (ip), vehicle: other 117 % of control

CCCNC(=O)NCCN(CC)c1ccccc1
inactive: [1] 97 % of control | [2] 93 % of control and 101 % of control | dose: 100.0 mg/kg/injection, schedule: Q04DX002 (ip), vehicle: carboxymethylcellulose (CMC) 94 % of control and 97 % of control | [3] 100 % of control | [4] 96 % of control | [5] 104 % of control and 87 % of control | dose: 200.0 mg/kg/injection, schedule: Q04DX002 (ip), vehicle: carboxymethylcellulose (CMC) 105 % of control and 87 % of control | [6] 109 % of control | dose: 400.0 mg/kg/injection, schedule: Q01DX001 (ip), vehicle: carboxymethylcellulose (CMC) 96 % of control | dose: 400.0 mg/kg/injection, schedule: Q01DX009 (ip), vehicle: carboxymethylcellulose (CMC) 93 % of control and 103 % of control | dose: 400.0 mg/kg/injection, schedule: Q04DX002 (ip), vehicle: carboxymethylcellulose (CMC) 93 % of control and 97 % of control | [7] 102 % of control

C[n+]1ccccc1/C=N/Nc1ccccc1
inactive: dose: 75.0 mg/kg/injection, schedule: Q01DX001 (ip), vehicle: other 96 % of control

COc1ccc([N+](=O)[O-])cc1NC(=O)Nc1cccc(C(=O)O)c1
inactive: dose: 50.0 mg/kg/injection, schedule: Q01DX009 (ip), vehicle: Klucel (hydroxypropylcellulose) (HPC) 101 % of control | [8] 96 % of control | [9] 86 % of control

C[C@]12CCC(=O)C=C1CC[C@H]1[C@@H]3CC[C@](O)(C(=O)CO)[C@@]3(C)C[C@H](O)[C@@]12F
inactive: dose: 50.0 mg/kg/injection, schedule: Q01DX001 (sc), vehicle: steriod suspending solution 103 % of control | dose: 100.0 mg/kg/injection, schedule: Q01DX001 (sc), vehicle: steriod suspending solution 100 % of control | dose: 200.0 mg/kg/injection, schedule: Q01DX001 (sc), vehicle: steriod suspending solution 105 % of control | dose: 400.0 mg/kg/injection, schedule: Q01DX001 (sc), vehicle: steriod suspending solution 105 % of control

Cc1cc([N+](=O)[O-])ccc1NC(=O)c1ccccc1
inactive: dose: 100.0 mg/kg/injection, schedule: Q04DX003 (ip), vehicle: acetone 94 % of control | dose: 200.0 mg/kg/injection, schedule: Q04DX003 (ip), vehicle: acetone 100 % of control | dose: 400.0 mg/kg/injection, schedule: Q04DX003 (ip), vehicle: acetone 93 % of control

FC1(F)SC2CC/C=C\CCC2C1(F)F (centres undefined)
inactive: dose: 0.75 mg/kg/injection, schedule: Q04DX003 (ip), vehicle: Klucel (hydroxypropylcellulose) (HPC) 90 % of control | dose: 1.5 mg/kg/injection, schedule: Q01DX009 (ip), vehicle: Klucel (hydroxypropylcellulose) (HPC) 96 % of control | dose: 1.5 mg/kg/injection, schedule: Q04DX003 (ip), vehicle: Klucel (hydroxypropylcellulose) (HPC) 98 % of control | dose: 3.0 mg/kg/injection, schedule: Q01DX009 (ip), vehicle: Klucel (hydroxypropylcellulose) (HPC) 102 % of control | dose: 3.0 mg/kg/injection, schedule: Q04DX003 (ip), vehicle: Klucel (hydroxypropylcellulose) (HPC) 102 % of control | dose: 3.12 mg/kg/injection, schedule: Q04DX003 (ip), vehicle: Klucel (hydroxypropylcellulose) (HPC) 86 % of control | dose: 12.0 mg/kg/injection, schedule: Q04DX003 (ip), vehicle: Klucel (hydroxypropylcellulose) (HPC) 88 % of control

C(=N\Nc1nnc(N/N=C/c2cccc3ccccc23)c2ccccc12)/c1cccc2ccccc12
inactive: dose: 50.0 mg/kg/injection, schedule: Q01DX001 (ip), vehicle: saline 92 % of control | [10] 92 % of control | [11] 92 % of control | [12] 92 % of control

NNP(=O)(N1CCCCC1)N1CCCCC1
inactive: dose: 100.0 mg/kg/injection, schedule: Q04DX002 (ip), vehicle: saline with Tween-80 90 % of control | dose: 200.0 mg/kg/injection, schedule: Q04DX002 (ip), vehicle: saline with Tween-80 97 % of control

COC1OC(CI)C(OS(C)(=O)=O)C(OC(=O)c2ccccc2)C1OC(=O)c1ccccc1 (centres undefined)
inactive: dose: 100.0 mg/kg/injection, schedule: Q04DX002 (ip), vehicle: Klucel (hydroxypropylcellulose) (HPC) 91 % of control | dose: 200.0 mg/kg/injection, schedule: Q04DX002 (ip), vehicle: Klucel (hydroxypropylcellulose) (HPC) 97 % of control

NC(=O)N1CCCCC1
inactive: [10] 102 % of control | [11] 98 % of control | [12] 102 % of control

CN(CCNC(=O)C1CCCCC1C(=O)O)c1ccccc1 (centres undefined)
inactive: [8] 98 % of control | [9] 92 % of control | dose: 400.0 mg/kg/injection, schedule: Q01DX009 (ip), vehicle: Klucel (hydroxypropylcellulose) (HPC) 96 % of control

O=C(Nc1cc(C(F)(F)F)ccc1Cl)c1ccc(Cl)cc1Cl
inactive: dose: 100.0 mg/kg/injection, schedule: Q01DX009 (sc), vehicle: olive oil, sesame oil, peanut oil 104 % of control | dose: 100.0 mg/kg/injection, schedule: Q04DX003 (sc), vehicle: olive oil, sesame oil, peanut oil 106 % of control | dose: 200.0 mg/kg/injection, schedule: Q01DX009 (sc), vehicle: olive oil, sesame oil, peanut oil 113 % of control | dose: 200.0 mg/kg/injection, schedule: Q04DX003 (sc), vehicle: olive oil, sesame oil, peanut oil 101 % of control | dose: 400.0 mg/kg/injection, schedule: Q01DX009 (sc), vehicle: olive oil, sesame oil, peanut oil 107 % of control | dose: 400.0 mg/kg/injection, schedule: Q04DX003 (sc), vehicle: olive oil, sesame oil, peanut oil 101 % of control

Cc1ccc(S(=O)(=O)F)cc1C(=O)O
inactive: [1] 96 % of control and 106 % of control | [2] 93 % of control and 102 % of control | dose: 100.0 mg/kg/injection, schedule: Q04DX002 (ip), vehicle: gum acacia 101 % of control and 111 % of control | [3] 93 % of control and 98 % of control | [4] 95 % of control and 100 % of control | [5] 99 % of control and 100 % of control | dose: 200.0 mg/kg/injection, schedule: Q04DX002 (ip), vehicle: gum acacia 101 % of control and 104 % of control | [6] 102 % of control | dose: 400.0 mg/kg/injection, schedule: Q04DX002 (ip), vehicle: gum acacia 107 % of control | [7] 93 % of control

CCCCN1CCSC1=S
inactive: dose: 100.0 mg/kg/injection, schedule: Q01DX009 (ip), vehicle: alcohol 93 % of control | dose: 100.0 mg/kg/injection, schedule: Q04DX002 (ip), vehicle: alcohol 100 % of control | dose: 200.0 mg/kg/injection, schedule: Q01DX009 (ip), vehicle: alcohol 96 % of control | dose: 200.0 mg/kg/injection, schedule: Q04DX002 (ip), vehicle: alcohol 87 % of control | dose: 400.0 mg/kg/injection, schedule: Q01DX009 (ip), vehicle: alcohol 86 % of control | dose: 400.0 mg/kg/injection, schedule: Q04DX002 (ip), vehicle: alcohol 103 % of control
